Source: ChEMBL document CHEMBL5046322, “Discovery of SHR2415, a Novel Pyrrole-Fused Urea Scaffold ERK1/2 Inhibitor” (ACS Med Chem Lett, 2022)
pIC50: −log10 of the molar value. Blank lines part the entries; values can stand above or below the molecule they belong to.

Key:
COLO 205 [1] = test: Antiproliferative activity against human COLO 205 cells assessed as reduction in cell viability for 72 hrs by cell titre glo luminescence assay; format: functional, cell-based; details: for pIC50: Homo sapiens, COLO 205, 72 h, read-out: IC50; for IC50: colo 205
[2] = target: Mitogen-activated protein kinase 1 (Homo sapiens, UniProt P28482); test: Inhibition of ERK2 (unknown origin) measured after 2 hr by ADP-glo assay
[3] = Cmax in plasma of BALB/c mouse xenografted with human COLO 205 cells at 50 mg/kg, po for 14 days; format: ADME, organism-based; parameters: route oral, dose 50 mg/kg, time 14 day
[4] = AUC in plasma of BALB/c mouse xenografted with human COLO 205 cells at 50 mg/kg, po for 14 days; format: ADME, organism-based; parameters: time 14 day, dose 50 mg/kg
[5] = Ratio of AUC in tumor to plasma of BALB/c mouse xenografted with human COLO 205 cells at 50 mg/kg, po for 14 days; format: ADME, organism-based; details: tumor and plasma, time 14 day, read-out: Ratio AUC
COLO 205 [6] = test: Antitumor activity against human COLO 205 cells xenografted in BALB/c nude mouse assessed as TGI at 50 mg/kg, po measured after 14 days; format: functional; details: COLO 205, po, 336 h, time 14 day, read-out: TGI
[7] = AUC in tumor of BALB/c mouse xenografted with human COLO 205 cells at 50 mg/kg, po for 14 days; format: ADME, organism-based, Neoplasm; parameters: dose 50 mg/kg, time 14 day
[8] = Cmax in tumor of BALB/c mouse xenografted with human COLO 205 cells at 50 mg/kg, po for 14 days; format: ADME, organism-based, Neoplasm; parameters: route oral, dose 50 mg/kg, time 14 day
in vivo = details: BALB/c, mouse, tumour, po, 25 mg/kg
Description: Ratio of AUC in tumor to plasma of BALB/c mouse xenografted with human COLO 205 cells at 25 mg/kg, po for 14 days

[9] = Cmax in tumor of BALB/c mouse xenografted with human COLO 205 cells at 25 mg/kg, po for 14 days; format: ADME, organism-based, Neoplasm; parameters: route oral, dose 25 mg/kg, time 14 day
COLO 205 [10] = test: Antitumor activity against human COLO 205 cells xenografted in BALB/c nude mouse assessed as TGI at 25 mg/kg, po measured after 14 days; format: functional; details: COLO 205, po, 336 h, time 14 day, read-out: TGI
[11] = AUC (0 to t) in Beagle dog at 2 mg/kg, po; format: ADME, organism-based, Canis lupus familiaris; parameters: dose 2 mg/kg; details: in vivo
[12] = Cmax in Beagle dog plasma at 0.5 mg/kg, iv and measured after 24 hrs by LC/MS/MS analysis; format: ADME, organism-based, Canis lupus familiaris; parameters: route intravenous, time 24 hrs, dose 0.5 mg/kg
[13] = Plasma protein binding in human; format: ADME, cell-free; details: read-out: PPB (converted)
[14] = Cmax in plasma of BALB/c mouse xenografted with human COLO 205 cells at 25 mg/kg, po for 14 days; format: ADME, organism-based; parameters: route oral, dose 25 mg/kg, time 14 day
[15] = AUC (0 to t) in Sprague-Dawley rat at 2 mg/kg, po; format: ADME, organism-based; parameters: dose 2 mg/kg; details: in vivo
[16] = Half life in Beagle dog at 2 mg/kg, po; details: in vivo
[17] = Oral bioavailability in Beagle dog at 2 mg/kg; format: ADME, organism-based, Canis lupus familiaris; details: in vivo
[18] = Oral bioavailability in Sprague-Dawley rat at 2 mg/kg; format: ADME, organism-based; details: in vivo
[19] = Oral bioavailability in ICR mouse at 2 mg/kg; format: ADME, organism-based; details: in vivo
[20] = Cmax in Sprague-Dawley rat plasma at 1 mg/kg, iv and measured after 24 hrs by LC/MS/MS analysis; format: ADME, organism-based; parameters: route intravenous, dose 1 mg/kg, time 24 hrs
[21] = Clearance in Sprague-Dawley rat plasma at 1 mg/kg, iv and measured after 24 hrs by LC/MS/MS analysis; format: ADME, organism-based
[22] = Clearance in Beagle dog plasma at 0.5 mg/kg, iv and measured after 24 hrs by LC/MS/MS analysis; format: ADME, organism-based, Canis lupus familiaris
[23] = Half life in Sprague-Dawley rat at 2 mg/kg, po; details: in vivo
[24] = target: Cyclin-dependent kinase 2 (Homo sapiens, UniProt P24941); test: Inhibition of CDK2 (unknown origin)
[25] = target: Glycogen synthase kinase-3 beta (Homo sapiens, UniProt P49841); test: Inhibition of GSK3beta (unknown origin)
[26] = AUC in tumor of BALB/c mouse xenografted with human COLO 205 cells at 25 mg/kg, po for 14 days; format: ADME, organism-based, Neoplasm; parameters: time 14 day, dose 25 mg/kg
[27] = AUC in plasma of BALB/c mouse xenografted with human COLO 205 cells at 25 mg/kg, po for 14 days; format: ADME, organism-based; parameters: time 14 day, dose 25 mg/kg
[28] = Clearance in ICR mouse plasma at 1 mg/kg, iv and measured after 24 hrs by LC/MS/MS analysis mg/kg, iv; format: ADME, organism-based
[29] = AUC (0 to t) in ICR mouse at 2 mg/kg, po; format: ADME, organism-based; parameters: dose 2 mg/kg; details: in vivo

Chain of Mitogen-activated protein kinase 1 (P28482 whole entry): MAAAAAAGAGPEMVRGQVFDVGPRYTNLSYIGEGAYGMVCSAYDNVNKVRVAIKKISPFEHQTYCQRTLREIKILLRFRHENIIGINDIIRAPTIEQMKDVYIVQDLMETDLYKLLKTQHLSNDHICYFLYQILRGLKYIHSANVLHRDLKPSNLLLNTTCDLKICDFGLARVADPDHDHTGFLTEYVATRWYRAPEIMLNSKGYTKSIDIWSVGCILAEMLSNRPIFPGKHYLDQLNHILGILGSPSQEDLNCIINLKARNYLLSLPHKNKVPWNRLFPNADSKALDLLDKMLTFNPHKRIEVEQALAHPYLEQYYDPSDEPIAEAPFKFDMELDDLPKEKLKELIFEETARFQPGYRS
Chain of Glycogen synthase kinase-3 beta (P49841 whole entry): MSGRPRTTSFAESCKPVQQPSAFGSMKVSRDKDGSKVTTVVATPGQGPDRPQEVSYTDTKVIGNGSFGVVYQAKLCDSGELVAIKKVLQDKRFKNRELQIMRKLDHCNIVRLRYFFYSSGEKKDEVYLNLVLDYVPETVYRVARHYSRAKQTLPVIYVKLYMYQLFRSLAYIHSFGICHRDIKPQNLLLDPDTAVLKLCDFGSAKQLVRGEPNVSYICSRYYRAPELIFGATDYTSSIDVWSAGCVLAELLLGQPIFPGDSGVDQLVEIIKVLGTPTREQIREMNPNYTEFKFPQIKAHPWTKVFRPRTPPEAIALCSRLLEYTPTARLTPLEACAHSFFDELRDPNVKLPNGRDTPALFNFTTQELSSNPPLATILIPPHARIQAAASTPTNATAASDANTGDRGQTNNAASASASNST

pIC50 (COLO 205 [1]): 7.09
SMILES: C[C@@H](CO)Nc1ncc(Cl)c(-c2cc3n(c2)C(=O)N([C@H](CO)c2cccc(Cl)c2)C3)n1

pIC50 (COLO 205 [1]): 6.61
pIC50 [2]: 7.84
SMILES: Cc1cnc(Nc2ccnn2C)nc1N1Cc2cn(C(CO)c3cccc(Cl)c3)nc2C1 (racemic)

Cmax [3]: 32300 ng/mL
AUC at 336 h [4]: 114000 ng·h/mL
pIC50 (COLO 205 [1]): 6.99
Kp at 336 h [5]: 0.43
AUC at 336 h [7]: 48800 ng·h/mL
Cmax [8]: 13000 ng/mL
SMILES: CC(C)Nc1cc(-c2c[nH]c(C(=O)N[C@H](CO)c3cccc(Cl)c3)c2)c(Cl)cn1 [ULIXERTINIB]
inhibition in vivo at 50 mg/kg (COLO 205 [6]): 63%

pIC50 (COLO 205 [1]): < 5.00
pIC50 [2]: 6.70
SMILES: Cn1nccc1Nc1nccc(N2CC[C@H](C(=O)N[C@H](CO)c3cccc(Cl)c3)C2)n1

pIC50 (COLO 205 [1]): 6.02
pIC50 [2]: 7.00
SMILES: Cc1cnc(Nc2ccnn2C)nc1N1Cc2nn(C(CO)c3cccc(Cl)c3)c(C)c2C1 (racemic)

pIC50 (COLO 205 [1]): 7.04
pIC50 [2]: 8.32
SMILES: Cc1cnc(Nc2ccnn2C)nc1-c1cc2n(c1)C(=O)N([C@H](CO)c1ccc(Cl)c(F)c1)C2

pIC50 (COLO 205 [1]): 6.07
pIC50 [2]: 8.04
SMILES: Cc1cnc(Nc2ccnn2C)nc1-c1ccc2c(c1)CCN([C@H](CO)c1cccc(Cl)c1)C2=O

SMILES: Cc1cnc(Nc2ccnn2C)nc1-c1cc2n(c1)C(=O)N([C@H](CO)c1cccc(Cl)c1)C2
Kp at 336 h (in vivo): 1.42
Cmax [9]: 9460 ng/mL
inhibition in vivo at 25 mg/kg (COLO 205 [10]): 112%
AUC(0-t) [11]: 3270 ng·h/mL
Cmax [12]: 526 ng/mL
fraction unbound [13]: 0.016
Cmax [14]: 5150 ng/mL
AUC(0-t) [15]: 726 ng·h/mL
half-life [16]: 3.2 h
bioavailability [17]: 101%
bioavailability [18]: 45.8%
bioavailability [19]: 90.8%
pIC50 (COLO 205 [1]): 7.35
Cmax [20]: 219 ng/mL
clearance [21]: 25.3 mL/min/kg
clearance [22]: 10.5 mL/min/kg
half-life [23]: 2.1 h
pIC50 [24]: 7.00
pIC50 [25]: 7.19
AUC at 336 h [26]: 30300 ng·h/mL
AUC at 336 h [27]: 21400 ng·h/mL
clearance [28]: 12.2 mL/min/kg
AUC(0-t) [29]: 2460 ng·h/mL

IC50 (COLO 205 [1]): Not Active
pIC50 [2]: 6.73
SMILES: Cc1cnc(NC(C)C)nc1-c1cc2n(c1)C(=O)N([C@H](CO)c1cccc(Cl)c1)C2

IC50 (COLO 205 [1]): Not Active
SMILES: Cc1cnc(Nc2ccnn2C)nc1-c1cc2n(c1)C(=O)N([C@H](C)c1cccc(Cl)c1)C2

pIC50 (COLO 205 [1]): 7.05
pIC50 [2]: 8.62
SMILES: COc1cc(F)cc([C@@H](CO)N2Cc3cc(-c4nc(Nc5ccnn5C)ncc4C)cn3C2=O)c1

IC50 (COLO 205 [1]): Not Active
pIC50 [2]: 6.63
SMILES: CC(C)Nc1cc(-c2cc3n(c2)C(=O)N([C@H](CO)c2cccc(Cl)c2)C3)c(Cl)cn1
